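Five concentrations, 48 hours, 96-well plates. Abbreviation: GI50, concentration required for 50% inhibition of growth. TGI marks complete inhibition of growth.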
Key:
Assay in all cases: inhibition of tumour cell growth, NCI panel, 48 h
[1] = test system: CCRF-CEM leukemia
[2] = test system: COLO 205 colon
[3] = test system: HCT-116 colon
[4] = test system: K-562 leukemia
[5] = test system: OVCAR-5 ovarian
[6] = test system: SK-MEL-2 melanoma
[7] = test system: TK-10 renal
[8] = test system: U251 CNS
[9] = test system: HCC-2998 colon
[10] = test system: MALME-3M melanoma

| SMILES | TGI [1] [µM] | TGI [2] [µM] | TGI [3] [µM] | TGI [4] [µM] | TGI [5] [µM] | TGI [6] [µM] | TGI [7] [µM] | TGI [8] [µM] | TGI [9] [µM] | TGI [10] [µM] | GI50 [1] [µM] | GI50 [2] [µM] | GI50 [5] [µM] | GI50 [7] [µM] |
| --- | --- | --- | --- | --- | --- | --- | --- | --- | --- | --- | --- | --- | --- | --- |
| CC(=O)Nc1ncc(Sc2ccccc2C(=O)O)s1 | > 100 | > 100 | > 100 | > 100 | > 100 | > 100 | > 100 | > 100 |  |  |  |  |  |  |
| O=C(c1cc(Cl)cc(Cl)c1)N(C(=S)OC12CC3CC(CC(C3)C1)C2)c1ccccc1 | 49.9 | 35.4 | > 100 |  | > 100 | 41.6 | > 100 | > 100 | > 100 | > 100 |  |  |  |  |
| O=C1c2cc3ccccc3cc2C2(c3ccc(Cl)cc3)N[C@H]3CCCC[C@@H]3N12 (some centres undefined) | > 100 | > 100 | 18.8 | > 100 | 60.2 | 35.4 | 27.3 | 30.1 |  | 36.8 |  |  |  |  |
| CC(=O)[O-].CC(=O)[O-].O=C(N/N=C/c1cc(Cl)cc(Cl)c1[OH2+])c1ccncc1.[Co+2] | > 100 | > 100 | > 100 | > 100 | > 100 |  | > 100 |  | > 100 | > 100 |  |  |  |  |
| Cc1ccc2c(c1)NC(=O)CCSSCCC(=O)N2 | > 100 | > 100 | > 100 | > 100 | > 100 | > 100 | > 100 | > 100 |  | > 100 |  |  |  |  |
| COC(=O)C(CCC1C=CCC1)N=Cc1ccccc1 (centres undefined) | > 100 | > 100 | > 100 | > 100 | > 100 | > 100 | > 100 | > 100 | > 100 |  |  |  |  |  |
| CC(=O)c1ccc(Oc2ccc(/C(C)=N\N=C(N)N)cc2)cc1 | 10.4 | 3.26 | 13 |  | 17.4 | 6.17 | 12.8 | 10 | 20.8 | 8.12 |  |  |  |  |
| O=C(O)CSc1cc(-c2ccccc2)nc2ccccc12 |  |  | 22 | > 100 | > 100 | > 100 | > 100 | > 100 |  | > 100 |  |  |  |  |
| O=c1[nH]c2ccc(CC(=S)N3CCOCC3)cc2s1 | > 100 | > 100 | > 100 | > 100 | > 100 | > 100 | > 100 | > 100 |  | > 100 |  |  |  |  |
| CCOP(=O)(/C=C\n1cnc2c(=O)n(C(C)=O)c(N)nc21)OCC | > 100 | > 100 | > 100 | > 100 | > 100 |  | > 100 | > 100 |  |  |  |  |  |  |
| CC(=O)O[C@H]1CC[C@]2(C)[C@H]3CC[C@@H]4[C@H]5[C@H](C(C)C)CC[C@]5(C(=O)OCC(CO)(CO)N=C(N)N)CC[C@@]4(C)[C@]3(C)CC[C@H]2C1(C)C | 5.51 | 3.55 |  |  | 3.09 |  | 3.12 |  |  |  | 2.24 | 1.88 | 1.67 | 1.67 |
| Cc1cc2[nH]c3c(C#N)c(-c4ccccc4)c(N=Nc4cccc(C(F)(F)F)c4)c(=O)n3c2cc1C | > 100 | > 100 | > 100 |  | > 100 | > 100 | > 100 | > 100 | > 100 | > 100 |  |  |  |  |
| O=P(O)(O)C(CSc1ccccc1)P(=O)(O)O | > 100 | > 100 | > 100 | > 100 | > 100 | > 100 |  | > 100 | > 100 | > 100 |  |  |  |  |
| COc1cc(OC)c2c(c1OC)OCC(Cc1ccc(O)cc1)C2=O (centres undefined) | > 25 | > 25 | > 25 | > 25 | > 25 | > 25 | > 25 | > 25 |  | > 25 |  |  |  |  |
| CC[C@@]1(O)C(=O)OCc2c1cc1n(c2=O)Cc2c-1nc1ccccc1c2CC[Si](C)(C)C |  | 14.2 | 0.116 | > 100 | 6.59 | 0.484 |  | 0.103 | 0.713 | 0.155 |  |  |  |  |
| N#Cc1c(-c2ccccc2)/c(=C\O)c(=O)n2c1nc1ccccc12 | > 100 | > 100 | > 100 | > 100 | > 100 | > 100 | > 100 | > 100 |  | > 100 |  |  |  |  |
| COc1cccc2cc(C(N)=O)c(=N)oc12 | > 100 | > 100 | > 100 | > 100 | > 100 | 60.7 |  | > 100 | > 100 | 45.9 |  |  |  |  |
| O=C(NO)c1coc2ccccc2c1=O | > 100 | > 100 |  | > 100 | > 100 | > 100 | > 100 | > 100 | > 100 | > 100 |  |  |  |  |
| C=C(C=O)c1c2c(nc3ccccc13)C(=O)c1ccccc1C2=O | 0.792 |  | 3.48 | > 22.5 | 4.92 |  | 2.32 | > 100 | > 100 | 3.27 |  |  |  |  |
| CCSC1=N/C(=C\c2ccccc2O)C(Nc2ccc(C)cc2)=N1 | > 100 | > 100 | > 100 | > 100 | > 100 | > 100 | > 100 | > 100 |  | > 100 |  |  |  |  |
| C/C(=N\Nc1ccc([N+](=O)[O-])cc1[N+](=O)[O-])c1ccc2ccccc2n1 |  | > 100 | > 100 | > 100 | > 100 | > 100 | > 100 | > 100 |  | > 100 |  |  |  |  |
| COc1ccc(/C=C2\CSC/C(=C\c3ccc(OC)c(OC)c3OC)C2=O)c(OC)c1OC | > 100 | > 100 | 39 | > 100 | > 100 | > 100 | > 100 | > 100 |  | 27.6 |  |  |  |  |
| N#CCC(=O)Nn1c(CC#N)nnc1Cc1ccccc1 |  |  | > 100 | > 100 | > 100 | > 100 | > 100 | > 100 | > 100 | > 100 |  |  |  |  |
| CC1C(c2ccc3c(c2)OCO3)c2cc3c(cc2OC1N1CCCC1)OCO3 (centres undefined) | 76.1 | > 100 | 54.8 | 61.4 | > 100 | 90.4 | > 100 |  | 49.1 |  |  |  |  |  |

Reference: PubChem BioAssay (NCI)
